According to ChEMBL document CHEMBL4513160, “CO-ADD screening of MMV (CH) - Small Polar Library”:
≈ marks a conversion by molar mass, not a printed value.

Columns and labels:
Pseudomonas aeruginosa [1] = test: Antibacterial activity against Pseudomonas aeruginosa PAO397 [PAO1 d(mexAB-oprM) d(mexCD-oprJ) d(mexEF-oprN) d(mexJKL) d(mexXY) d(opmH)] (CO-ADD:GN_211); MIC in CAMBH media using NBS plates, by OD(600); assay type: functional; settings: ASSAY_TEST Inhibition of Bacterial Growth, detection method Absorption (OD600), MEDIA CAMHB, plate type 384well, CORNING #3640, time 18 hr
Pseudomonas aeruginosa [2] = test: microbe, parasite or virus in culture; settings: ATCC 27853, 18 h, ASSAY_TEST Inhibition of Bacterial Growth, detection method Absorption (OD600), MEDIA CAMHB, plate type 384well, NBS, CORNING #3640
Description: Antibacterial activity against Pseudomonas aeruginosa ATCC 27853 (CO-ADD:GN_042); MIC in CAMBH media using NBS plates, by OD(600)

Acinetobacter baumannii = test: microbe, parasite or virus in culture; settings: ATCC 19606, 18 h, ASSAY_TEST Inhibition of Bacterial Growth, detection method Absorption (OD600), MEDIA CAMHB, plate type 384well, NBS, CORNING #3640
Description: Antibacterial activity against Acinetobacter baumannii ATCC 19606 (CO-ADD:GN_034); MIC in CAMBH media using NBS plates, by OD600

Compound | MIC (Pseudomonas aeruginosa [1]) [µM] | MIC (Pseudomonas aeruginosa [2]) [µM] | MIC (Acinetobacter baumannii) [µM]
Cn1cc(CC(=O)Nc2ccc(I)cn2)cn1 | > 300 | > 300 | > 300
NCC(=O)N1CCCC(CCc2ccc(F)cc2F)C1 (stereo not given) | > 300 | > 300 | > 300
NCC(=O)N1CCCC(CCc2ccc(F)cc2)C1 (stereo not given) | > 300 | > 300 | > 300
COc1ccc(NC(=O)c2ccc(S(N)(=O)=O)o2)cc1 | 200 (≈ 59.3 µg/mL) | > 300 | > 300
CC(C)c1ccoc1C(=O)N(C)c1cc(C#N)ccn1 | > 300 | > 300 | > 300
CN(Cc1ccc(O)cc1)C(=O)c1cc(Cl)c[nH]1 | > 300 | > 300 | > 300
O=C(c1ccc(Br)s1)N1CCN(c2ccccn2)CC1 | > 300 | > 300 | > 300
CCCOc1ccc(CN)cc1 | > 300 | > 300 | > 300
NC(=O)C1CCN(Cc2ccc(Br)c3cccnc23)C1 (stereo not given) | > 300 | > 300 | > 300
CN(CCOc1ccc(Cl)cc1)C(=O)C(C)(C)CN | > 300 | > 300 | > 300
NCc1cnn(-c2ccc(Br)cc2)c1 | > 300 | > 300 | > 300
CCn1cc(C(=O)Nc2ccc(Br)cn2)cn1 | > 300 | > 300 | > 300
Cc1ccc(C(=O)NCc2ccnc(N(C)C)c2)s1 | > 300 | > 300 | > 300
NC(=O)C1CCN(c2ccnc3cc(Br)ccc23)C1 (stereo not given) | > 300 | > 300 | > 300
Nc1cnccc1N1CCCCC1 | > 300 | > 300 | > 300
COc1ccc(C2NC(=O)c3cccnc3N2)cc1F (stereo not given) | > 300 | > 300 | > 300
NCc1cccc(-c2nccs2)c1 | > 300 | > 300 | > 300
CN(C(=O)CN)c1ccc(-c2ccccc2)cc1 | > 300 | > 300 | > 300

Compound | MIC (Pseudomonas aeruginosa [1]) [µM] | MIC (Pseudomonas aeruginosa [2]) [µM] | MIC (Acinetobacter baumannii) [µM]
Cc1cccc(C(=O)Nc2ncc(C)s2)n1 | > 300 | > 300 | > 300
OCC1(O)CCCN(c2ccnc3ccc(Cl)cc23)C1 (stereo not given) | > 300 | > 300 | > 300
N#Cc1ncn(CC(=O)c2ccc3c(c2)CCO3)n1 | > 300 | > 300 | > 300
CN(C)C(=O)CNC(=O)NCc1cc(F)ccc1Br | > 300 | > 300 | > 300
O=C(c1c(O)cccc1F)N1CCc2cnccc21 | > 300 | > 300 | > 300
Clc1cccnc1N1CCC(Nc2cccnc2)CC1 | > 300 | > 300 | > 300
N#CC(c1ccc(Br)cc1)N1CCNCC1 (stereo not given) | > 300 | > 300 | > 300
CC1COC2(CCN(C(=O)c3ccc(Cl)s3)CC2)O1 (stereo not given) | > 300 | > 300 | > 300
CCNCCOc1cccc(OCC)c1 | > 300 | > 300 | > 300
CC(N)c1nc(-c2ccc(Br)cc2)c[nH]1 (stereo not given) | > 300 | > 300 | > 300
NCC(=O)N1CCCC(CCc2ccc(F)c(F)c2)C1 (stereo not given) | > 300 | > 300 | > 300
NCC1Cc2ccccc21 (stereo not given) | > 300 | > 300 | > 300
CCCSc1ccc(NC(=O)NCCN)cc1 | > 300 | > 300 | > 300
Cc1cccc(OCCc2noc(C3CNC3)n2)c1 | 200 (≈ 51.9 µg/mL) | > 300 | > 300
Cc1cc(NCCO)nc2ccccc12 | > 300 | > 300 | > 300
CN(C)c1nc(Cl)c(CN)s1 | 200 (≈ 38.3 µg/mL) | 200 (≈ 38.3 µg/mL) | > 300
O=C(Nc1ccnc(CO)c1)c1ccc(F)cc1I | > 300 | > 300 | > 300
